Experimental data reported in patent US20230183751A1, “HDR ENHANCERS” (OXFORD GENETICS LIMITED, priority 2020, published 2023).

Each compound was assayed on HDR in HEK293 reporter cell line (truncated EGFP) (assay: HDR assay with paired nickases Cas9n D10A RNP and ssOligo donor, EGFP-positive cells by FACS). Settings: three concentrations (low, medium, high), FIG. 3.
Type: cell-based, human
Method: More specifically, an HDR assay using a HEK reporter cell line containing truncated EGFP may be used. These cells may be transfected with a transfection complex containing the CRISPR endonuclease and a donor sequence. Cas9 RNPs may be prepared by following the manufacturers' guidelines. The transfection complex may be prepared by adding Cas9 RNP or Cas9 nickase RNP, along with ssOligo donor and lipofectamine 2000 in Optimem. Reagents should be mixed well and incubated for 20 mins. After 20 mins, 50 μlof transfection complex (at an optimal concentration—see the Examples herein) may be transferred in a 96 well plate and 50 μlHEK293 reporter cell line suspension (9×10^5 cells/ml) added followed by 50 μl of cell culture medium containing appropriate concentration(s) of inhibitor(s). Cells may be incubated at 37° C. in a CO2 incubator for 24 hours and then inhibitor-containing media should be replaced with fresh media without inhibitor. Cells are then further incubated for 48 hours. After 48 hours, cells may be trypsinized and resuspended in PBS containing 10% FBS. Samples may be run on FACS and the percentage of EGFP in the population measured. Presence of EGFP directly correlates with HDR efficiency. […]
To understand if inhibitors have any influence on HDR mediated by paired nickases, we carried out an HDR assay in the presence of the small molecule inhibitor library. Briefly, in vitro reconstituted Cas9n D10A RNP with gRNA-X1 and gRNA-X2 was transfected into the reporter cell line along with ssOligo donor in the presence of different small molecule inhibitors. Inhibitor-containing media was replaced with fresh media after 24 hours and the cells were then further incubated for 48 hours. After 48 hours, the cells were trypsinized and resuspended in 10% FBS containing PBS and analysed by FACS. EGFP-positive cells were monitored; these represented successful HDR events. […]

For `COc1ccc(CCC(=O)Nc2nc3ccc(Cl)cc3s2)cc1OC` [KY02111], the “dose-dependency of HDR efficiency” value was “did not show any significant dose-dependency”.
For `O=c1cc(N2CCOCC2)oc2c(-c3cccc4c3sc3ccccc34)cccc12` [NU7441], the “dose-dependency of HDR efficiency” value was “dose-dependent increases in HDR efficiency”.
In the case of `Clc1cc2c(NC3CCCC3)nnc(-c3ccncc3)c2cc1Cl` [A196], the “dose-dependency of HDR efficiency” value was “dose-dependent increases in HDR efficiency”.
In the case of `O=C(Nc1c[nH]nc1-c1nc2cc(CN3CCOCC3)ccc2[nH]1)NC1CC1` [AT9283], the “dose-dependency of HDR efficiency” value was “moderate decreases in HDR efficiency upon increasing the inhibitor concentration”.
`CCCCc1nc2cc(/C=C/C(=O)NO)ccc2n1CCN(CC)CC` [SB939] was tested, and the “dose-dependency of HDR efficiency” value was “moderate decreases in HDR efficiency upon increasing the inhibitor concentration”.
In the case of `CCN(C(=O)CO)[C@H]1CN(/C(=N\C#N)Nc2cccc(OC(F)F)c2)N=C1c1ccc(Cl)c(Cl)c1` [BAY598], the “dose-dependency of HDR efficiency” value was “dose-dependent increases in HDR efficiency”.
`Cl.O=C([C@@H](Cc1cccc(C(F)(F)F)c1)NS(=O)(=O)c1cc(F)c2c(c1)CCNC2)N1CCCC1` [(R)-PFI2 hydrochloride] was tested, and the “dose-dependency of HDR efficiency” value was “dose-dependent increases in HDR efficiency”.
With `CN(C)[C@H]1CN(C2CCc3cccc(F)c32)C[C@@H]1c1ccc(N2CCN(S(C)(=O)=O)CC2)cc1` (some centres unmarked) [A395] the “dose-dependency of HDR efficiency” value was “did not show any significant dose-dependency”.

Same assay, conditions: three concentrations tested, FIG. 3

Point of comparison: `O=c1cc(N2CCOCC2)oc2c(-c3cccc4c3sc3ccccc34)cccc12` [NU7441], “concentration with highest HDR efficiency” value 2 µM. Against it:
- Clc1cc2c(NC3CCCC3)nnc(-c3ccncc3)c2cc1Cl [A196] — 10-fold higher, 20 µM
- O=C(Nc1c[nH]nc1-c1nc2cc(CN3CCOCC3)ccc2[nH]1)NC1CC1 [AT9283] — 40-fold lower, 0.05 µM
- CCCCc1nc2cc(/C=C/C(=O)NO)ccc2n1CCN(CC)CC [SB939] — 40-fold lower, 0.05 µM
- CCN(C(=O)CO)[C@H]1CN(/C(=N\C#N)Nc2cccc(OC(F)F)c2)N=C1c1ccc(Cl)c(Cl)c1 [BAY598] — 10-fold higher, 20 µM
- Cl.O=C([C@@H](Cc1cccc(C(F)(F)F)c1)NS(=O)(=O)c1cc(F)c2c(c1)CCNC2)N1CCCC1 [(R)-PFI2 hydrochloride] — 10-fold higher, 20 µM

The compounds below were run on HEK reporter cell line (assay: cell-viability assay with alamar blue reagent). Settings: 0.1 μM inhibitor, 72 hours.
Type: cell-based, human
Method: To investigate the effect of this library on HDR efficiency and to identify novel molecules which would increase the HDR mediated gene editing efficiency, first we carried out a cell-viability assay using the HEK reporter cell line and alamar blue reagent. The experiment was performed to rule out any toxicity associated with the small molecule library. Briefly, 3 different concentration of inhibitors (0.1 μM, 1 μM and 10 μM) were added in the cells in a 96 well plate format and plates were incubated for 72 hours. After 72 hours, the media were replaced with alamar blue containing media and the plates were further incubated for 3 hours and then read on a Fluorstar omega plate reader. The table gives the results obtained with the subsequently-selected inhibitors, together with a range of other potential inhibitors.

Point of comparison: `COc1ccc(CCC(=O)Nc2nc3ccc(Cl)cc3s2)cc1OC` [KY02111], “% survival” value 100.52 ± 2.05%. Against it:
- O=c1cc(N2CCOCC2)oc2c(-c3cccc4c3sc3ccccc34)cccc12 [NU7441] — within error, 103.58 ± 4.44%
- Clc1cc2c(NC3CCCC3)nnc(-c3ccncc3)c2cc1Cl [A196] — higher, 105.84 ± 0.05%
- CCCCc1nc2cc(/C=C/C(=O)NO)ccc2n1CCN(CC)CC [SB939] — lower, 80.99 ± 1.01%
- CCN(C(=O)CO)[C@H]1CN(/C(=N\C#N)Nc2cccc(OC(F)F)c2)N=C1c1ccc(Cl)c(Cl)c1 [BAY598] — within error, 102.45 ± 0.9%
- Cl.O=C([C@@H](Cc1cccc(C(F)(F)F)c1)NS(=O)(=O)c1cc(F)c2c(c1)CCNC2)N1CCCC1 [(R)-PFI2 hydrochloride] — within error, 102.58 ± 0.88%
- CN(C)[C@H]1CN(C2CCc3cccc(F)c32)C[C@@H]1c1ccc(N2CCN(S(C)(=O)=O)CC2)cc1 (some centres unmarked) [A395] — within error, 100.35 ± 1.4%
- O=c1cc(N2CCOCC2)oc2c1ccc1ccccc12 [NU7026] — within error, 100.08 ± 4.01%

Same assay, conditions: 1 μM inhibitor, 72 hours

Point of comparison: `CN(C)[C@H]1CN(C2CCc3cccc(F)c32)C[C@@H]1c1ccc(N2CCN(S(C)(=O)=O)CC2)cc1` (some centres unmarked) [A395], “% survival” value 103.27 ± 0.32%. Against it:
- COc1ccc(CCC(=O)Nc2nc3ccc(Cl)cc3s2)cc1OC [KY02111] — lower, 100.86 ± 1.83%
- O=c1cc(N2CCOCC2)oc2c(-c3cccc4c3sc3ccccc34)cccc12 [NU7441] — lower, 88.88 ± 3.55%
- Clc1cc2c(NC3CCCC3)nnc(-c3ccncc3)c2cc1Cl [A196] — within error, 107.75 ± 6.83%
- CCCCc1nc2cc(/C=C/C(=O)NO)ccc2n1CCN(CC)CC [SB939] — lower, 15.56 ± 2.26%
- CCN(C(=O)CO)[C@H]1CN(/C(=N\C#N)Nc2cccc(OC(F)F)c2)N=C1c1ccc(Cl)c(Cl)c1 [BAY598] — within error, 102.92 ± 0.42%
- Cl.O=C([C@@H](Cc1cccc(C(F)(F)F)c1)NS(=O)(=O)c1cc(F)c2c(c1)CCNC2)N1CCCC1 [(R)-PFI2 hydrochloride] — within error, 101.51 ± 4.1%
- O=c1cc(N2CCOCC2)oc2c1ccc1ccccc12 [NU7026] — within error, 100.14 ± 4.13%

Same assay, conditions: 10 μM inhibitor, 72 hours

Point of comparison: `Clc1cc2c(NC3CCCC3)nnc(-c3ccncc3)c2cc1Cl` [A196], “% survival” value 107.43 ± 0.21%. Against it:
- COc1ccc(CCC(=O)Nc2nc3ccc(Cl)cc3s2)cc1OC [KY02111] — lower, 95.18 ± 2.27%
- O=c1cc(N2CCOCC2)oc2c(-c3cccc4c3sc3ccccc34)cccc12 [NU7441] — lower, 22.95 ± 0.98%
- CCCCc1nc2cc(/C=C/C(=O)NO)ccc2n1CCN(CC)CC [SB939] — lower, 2.25 ± 0.31%
- CCN(C(=O)CO)[C@H]1CN(/C(=N\C#N)Nc2cccc(OC(F)F)c2)N=C1c1ccc(Cl)c(Cl)c1 [BAY598] — within error, 101.44 ± 8.52%
- Cl.O=C([C@@H](Cc1cccc(C(F)(F)F)c1)NS(=O)(=O)c1cc(F)c2c(c1)CCNC2)N1CCCC1 [(R)-PFI2 hydrochloride] — lower, 96.42 ± 0.64%
- CN(C)[C@H]1CN(C2CCc3cccc(F)c32)C[C@@H]1c1ccc(N2CCN(S(C)(=O)=O)CC2)cc1 (some centres unmarked) [A395] — lower, 87.94 ± 9.49%
- O=c1cc(N2CCOCC2)oc2c1ccc1ccccc12 [NU7026] — lower, 83.17 ± 1.44%
